Results reported in US10501449B2 (priority 2018, dated 2019).
pIC50: −log10 of the molar value.

molecular target: hROMK (human Kir1.1) (Homo sapiens (Human), UniProt P48048); assay: cell-based; settings: CHO T-Rex hROMK stable cell line; thallium flux; 10-point concentration response curve; read-out: Human ROMK Th Flux IC50
Sequence (P48048 whole entry): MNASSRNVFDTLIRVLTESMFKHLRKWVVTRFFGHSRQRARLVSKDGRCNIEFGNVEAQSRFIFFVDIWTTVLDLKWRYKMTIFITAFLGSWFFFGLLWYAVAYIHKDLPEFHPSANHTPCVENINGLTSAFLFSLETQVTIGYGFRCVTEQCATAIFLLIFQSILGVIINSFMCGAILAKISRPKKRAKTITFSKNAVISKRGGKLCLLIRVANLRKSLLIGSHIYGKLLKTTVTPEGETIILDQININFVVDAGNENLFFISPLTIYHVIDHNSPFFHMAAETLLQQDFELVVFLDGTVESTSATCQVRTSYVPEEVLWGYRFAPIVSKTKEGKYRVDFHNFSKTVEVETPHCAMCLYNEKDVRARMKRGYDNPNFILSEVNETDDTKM

SMILES	pIC50
Cc1cc(-n2cc(C(O)CN3CCO[C@H](c4ccc5c(c4C)COC5=O)C3)cn2)ncc1C#N (single isomer, unassigned) [Example 18-I]	6.06
Cc1cc(N2CC(CN3CCN[C@H](c4ccc5c(c4C)COC5=O)C3)OC2=O)ncc1C#N (single isomer, unassigned) [Example 160-I]	6.89
COc1cc(-n2cc(CN3CC(c4ccc5c(c4C)COC5=O)NC(C(C)O)C3)cn2)ncc1C#N (single isomer, unassigned) [Example 204-I, 6-(4-((3-(1-hydroxyethyl)-5-(4-methyl-1-oxo-1,3-dihydroisobenzofuran-5-yl)piperazin-1-yl)methyl)-1H-pyrazol-1-yl)-4-methoxynicotinonitrile]	6.66
Cc1cc(-n2cc(CN3CC(F)C(c4ccc5c(c4C)COC5=O)C3)cn2)ncc1C#N (single isomer, unassigned) [Example 212-II, 6-(4-((3-fluoro-4-(4-methyl-1-oxo-1,3-dihydroisobenzofuran-5-yl)pyrrolidin-1-yl)methyl)-1H-pyrazol-1-yl)-4-methylnicotinonitrile]	7.01
Cc1cc(-n2cc(CN3CC(c4ccc5c(c4C)COC5=O)NC(C(C)(C)O)C3)cn2)ncc1C#N (single isomer, unassigned) [Example 213-I, 6-(4-((3-(2-hydroxypropan-2-yl)-5-(4-methyl-1-oxo-1,3-dihydroisobenzofuran-5-yl)piperazin-1-yl)methyl)-1H-pyrazol-1-yl)-4-methynicotinonitrile]	5.92
CC(=O)NC1CCN(Cc2cnn(-c3cc(C)c(C#N)cn3)c2)CC1c1ccc2c(c1C)COC2=O (single isomer, unassigned) [Example 248-I, N-(1-((1-(5-cyano-4-methylpyridin-2-yl)-1H-pyrazol-4-yl)methyl)-3-(4-methyl-1-oxo-1,3-dihydroisobenzofuran-5-yl)piperidin-4-yl)acetamide]	5.82
CC(=O)NC1CC(c2ccc3c(c2C)COC3=O)CN(Cc2cnn(-c3cc(C)c(C#N)cn3)c2)C1 (single isomer, unassigned) [Example 257-I, N-(1-((1-(5-cyano-4-mehtylpyridin-2-yl)-1H-pyrazol-4-yl)methyl)-5-(4-methyl-1-oxo-1,3-dihydroisobenzofuran-5-yl)piperidin-3-yl)acetamide]	5.85
CNC(=O)OC1CCN(Cc2cnn(-c3cc(C)c(C#N)cn3)c2)CC1c1ccc2c(c1C)COC2=O (single isomer, unassigned) [Example 258-I, 1-((1-(5-cyano-4-methylpyridin-2-yl)-1H-pyrazol-4-yl)methyl)-3-(4-methyl-1-oxo-1,3-dihydroisobenzofuran-5-yl)piperidin-4-yl methylcarbamate]	6.60
Cc1cc(-c2nnc(CN3CC(c4ccc5c(c4C)COC5=O)NC(C(F)F)C3)o2)ncc1C#N (single isomer, unassigned) [Example 273-I, 6-(5-((3-(difluoromethyl)-5-(4-methyl-1-oxo-1,3-dihydroisobenzofuran-5-yl)piperazin-1-yl)methyl)-1,3,4-oxadiazol-2-yl)-4-methylnicotinonitrile]	6.14
Cc1cc(-n2cc(CN3CCO[C@@H](c4ccc5c(c4C)COC5=O)C3)cn2)ncc1C#N [Example 1-II, (S)-4-methyl-6-(4-((2-(4-methyl-1-oxo-1,3-dihydroisobenzofuran-5-yl)morpholino)methyl)-1H-pyrazol-1-yl) nicotinonitrile]	6.10
Cc1c(C2CN(Cc3cnn(-c4ccc5oc(=O)n(C)c5c4)c3)CCC2(F)F)ccc2c1COC2=O (stereo not shown) [Example 4, 5-(4-((4,4-difluoro-3-(4-methyl-1-oxo-1,3-dihydroisobenzofuran-5-yl)piperidin-1-yl)methyl)-1H-pyrazol-1-yl)-3-methylbenzo[d]oxazol-2(3H)-one]	6.19
Cc1cc(-n2cc(CN3CCC(F)(F)C(c4ccc5c(c4C)COC5=O)C3)cn2)ncc1C#N (stereo not shown) [Example 5, 6-(4-((4,4-difluoro-3-(4-methyl-1-oxo-1,3-dihydroisobenzofuran-5-yl)piperidin-1-yl)methyl)-1H-pyrazol-1-yl)-4-methylnicotinonitrile]	6.57
Cc1ncc(-n2cc(CN3CCO[C@H](c4ccc5c(c4C)COC5=O)C3)cn2)s1 [Example 7-I, (R)-4-methyl-5-(4-((1-(2-methylthiazol-5-yl)-1H-pyrazol-4-yl)methyl)morpholin-2-yl) isobenzofuran-1(3H)-one]	6.00
Cc1c([C@@H]2CN(Cc3cnn(-c4cc(C5CC5)c(C#N)cn4)c3)CCO2)ccc2c1COC2=O [Example 8-I, (R)-4-cyclopropyl-6-(4-((2-(4-methyl-1-oxo-1,3-dihydroisobenzofuran-5-yl)morpholino)methyl)-1H-pyrazol-1-yl)nicotinonitrile]	6.55
Cc1cc(-n2cc(CN3C[C@@H](c4ccc5c(c4C)COC5=O)OCC3=O)cn2)ncc1C#N [Example 10-I, (R)-4-methyl-6-(4-((2-(4-methyl-1-oxo-1,3-dihydroisobenzofuran-5-yl)-5-oxomorpholino)methyl)-1H-pyrazol-1-yl)nicotinonitrile]	6.21
Cc1c([C@@H]2CN(Cc3nnc(-c4ccc(C#N)cn4)o3)CCO2)ccc2c1COC2=O [Example 12-I, (R)-6-(5-((2-(4-methyl-1-oxo-1,3-dihydroisobenzofuran-5-yl)morpholino)methyl)-1,3,4-oxadiazol-2-yl)nicotinonitrile]	6.28

SMILES	pIC50
Cc1cc(-c2nnc(CN3CCN[C@H](c4ccc5c(c4C)COC5=O)C3)o2)ncc1C#N [Example 13-I, (R)-4-methyl-6-(5-((3-(4-methyl-1-oxo-1,3-dihydroisobenzofuran-5-yl)piperazin-1-yl)methyl)-1,3,4-oxadiazol-2-yl)nicotinonitrile]	6.96
COc1cc(-c2ccc(CN3C[C@@H](c4ccc5c(c4C)COC5=O)OC3=O)cn2)ncc1C#N [Example 17-I, (R)-4-methoxy-5′-((5-(4-methyl-1-oxo-1,3-dihydroisobenzofuran-5-yl)-2-oxooxazolidin-3-yl)methyl)-[2,2′-bipyridine]-5-carbonitrile]	6.05
Cc1c([C@@H]2CN(Cc3cnc(-c4ccc5oc(=O)n(C)c5c4)s3)CCO2)ccc2c1COC2=O [Example 19-I, (R)-3-methyl-5-(5-((2-(4-methyl-1-oxo-1,3-dihydroisobenzofuran-5-yl)morpholino)methyl)thiazol-2-yl)benzo[d]oxazol-2(3H)-one]	6.74
Cc1c([C@@H]2CN(C(=O)c3cnc(-c4ccc5oc(=O)n(C)c5c4)s3)CCO2)ccc2c1COC2=O [Example 20-I, (R)-3-methyl-5-(5-(2-(4-methyl-1-oxo-1,3-dihydroisobenzofuran-5-yl)morpholine-4-carbonyl)thiazol-2-yl)benzo[d]oxazol-2(3H)-one]	6.31
COC(=O)N1CCN(Cc2cnn(-c3cc(C)c(C#N)cn3)c2)C[C@H]1c1ccc2c(c1C)COC2=O [Example 24-I, Methyl (R)-4-((1-(5-cyano-4-methylpyridin-2-yl)-1H-pyrazol-4-yl)methyl)-2-(4-methyl-1-oxo-1,3-dihydroisobenzofuran-5-yl)piperazine-1-carboxylate]	6.30
Cc1c([C@@H]2CN(Cc3cn(-c4ccc5oc(=O)n(C)c5c4)cn3)CCO2)ccc2c1COC2=O [Example 29-I, (R)-3-methyl-5-(4-((2-(4-methyl-1-oxo-1,3-dihydroisobenzofuran-5-yl)morpholino)methyl)-1H-imidazol-1-yl) benzo[d]oxazol-2(3H)-one]	6.92
Cc1cc(-c2nnc(CN3CCO[C@H](c4ccc5c(c4C)COC5=O)C3)o2)ncc1C#N [Example 30-I, (R)-4-methyl-6-(5-((2-(4-methyl-1-oxo-1,3-dihydroisobenzofuran-5-yl)morpholino)methyl)-1,3,4-oxadiazol-2-yl) nicotinonitrile]	6.59
Cc1cc(-n2cc(CCN3CCO[C@H](c4ccc5c(c4C)COC5=O)C3)cn2)ncc1C#N [Example 31-I, (R)-4-methyl-6-(4-(2-(2-(4-methyl-1-oxo-1,3-dihydroisobenzofuran-5-yl)morpholino)ethyl)-1H-pyrazol-1-yl) nicotinonitrile]	6.72
Cc1cc(-c2ncc(C(=O)N3CCO[C@H](c4ccc5c(c4C)COC5=O)C3)s2)ncc1C#N [Example 33-I, (R)-4-methyl-6-(5-(2-(4-methyl-1-oxo-1,3-di-hydroisobenzofuran-5-yl)morpholine-4-carbonyl)thiazol-2-yl) nicotinonitrile]	6.16
COc1cc(-c2ncc(C(=O)N3CCO[C@H](c4ccc5c(c4C)COC5=O)C3)s2)ncc1C#N [Example 34-I, (R)-4-methoxy-6-(5-(2-(4-methyl-1-oxo-1,3-dihydroisobenzofuran-5-yl)morpholine-4-carbonyl)thiazol-2-yl) nicotinonitrile]	6.72
Cc1cn(-c2ncc(CN3CCO[C@H](c4ccc5c(c4C)COC5=O)C3)s2)cn1 [Example 36-I, (R)-4-methyl-5-(4-((2-(4-methyl-1H-imidazol-1-yl)thiazol-5-yl)methyl)morpholin-2-yl)iso-benzofuran-1(3H)-one]	6.17
Cc1c([C@@H]2CN(Cc3cnn(-c4ccsc4)c3)CCO2)ccc2c1COC2=O [Example 38-I, (R)-4-methyl-5-(4-((1-(thiophen-3-yl)-1H-pyrazol-4-yl)methyl)morpholin-2-yl)isobenzo-furan-1(3H)-one]	5.47
Cc1c([C@@H]2CN(Cc3cnn(-c4cnccn4)c3)CCO2)ccc2c1COC2=O [Example 39-I, (R)-4-methyl-5-(4-((1-(pyrazin-2-yl)-1H-pyrazol-4-yl)methyl)morpholin-2-yl)isobenzo-furan-1(3H)-one]	6.11
Cc1cncc(-n2cc(CN3CCO[C@H](c4ccc5c(c4C)COC5=O)C3)cn2)n1 [Example 41-I, (R)-4-methyl-5-(4-((1-(6-methylpyrazin-2-yl)-1H-pyrazol-4-yl)methyl)morpholin-2-yl) isobenzofuran-1(3H)-one]	6.01
Cc1c([C@@H]2CN(Cc3cnn(-c4cncc(C#N)c4)c3)CCO2)ccc2c1COC2=O [Example 42-I, (R)-5-(4-((2-(4-methyl-1-oxo-1,3-dihydroiso-benzofuran-5-yl)morpholino)methyl)-1H-pyrazol-1-yl)nicotinonitrile]	6.31
